Test results: the supplement of paper PMC10307832

How the values were obtained:
Assay in all cases: relative viability (nuclei count vs DMSO), 5 days (fraction); higher = more cells survive
Afatinib = compound: CN(C)C/C=C/C(=O)Nc1cc2c(Nc3ccc(F)c(Cl)c3)ncnc2cc1O[C@H]1CCOC1 [Afatinib]
In short: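 Lung cancer cell lines in 1536-well plates were exposed by pinning to five library-drug doses (not always all listed) √10 apart, following an overnight hold at 37 °C. MetaXpress counted Hoechst-stained nuclei from 4× images taken after 5 days without medium change. Viability is the median ratio of treated-well to vehicle-well nuclei across plates. Plates required control CV below 25% and at least one doubling.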

Afatinib + Tozasertib = compound: CN(C)C/C=C/C(=O)Nc1cc2c(Nc3ccc(F)c(Cl)c3)ncnc2cc1O[C@H]1CCOC1 [Afatinib] + Cc1cc(Nc2cc(N3CCN(C)CC3)nc(Sc3ccc(NC(=O)C4CC4)cc3)n2)n[nH]1 [Tozasertib] (partner 0.1 µM)
In short: (§1)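 The day after seeding in 1536-well plates, lung cancer cell lines were treated by pin tool with a single drug, or with a fixed anchor-drug dose together with five library-drug doses (not always all listed) in √10 steps. After 5 days, a combined fix-and-stain solution (final 0.05% Triton X-100, 1% formaldehyde, 1 ug/ml Hoechst) was added. Nuclei counted on 4× images gave relative viability as treated counts over vehicle counts, reported as the median of duplicate plates.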

Afatinib + Trametinib = compound: CN(C)C/C=C/C(=O)Nc1cc2c(Nc3ccc(F)c(Cl)c3)ncnc2cc1O[C@H]1CCOC1 [Afatinib] + CC(=O)Nc1cccc(-n2c(=O)n(C3CC3)c(=O)c3c(Nc4ccc(I)cc4F)n(C)c(=O)c(C)c32)c1 [Trametinib] (partner 0.02 µM)
In short: as §1

Afatinib + AZD7762 = compound: CN(C)C/C=C/C(=O)Nc1cc2c(Nc3ccc(F)c(Cl)c3)ncnc2cc1O[C@H]1CCOC1 [Afatinib] + NC(=O)Nc1cc(-c2cccc(F)c2)sc1C(=O)N[C@H]1CCCNC1 [AZD7762] (partner 0.2 µM)
In short: as §1

| Cell Line | relative viability (Afatinib; 0.005 µM) | relative viability (Afatinib; 0.01581 µM) | relative viability (Afatinib; 0.05 µM) | relative viability (Afatinib; 0.1581 µM) | relative viability (Afatinib; 0.5 µM) | relative viability (Afatinib + Tozasertib; first compound 0.005 µM) | relative viability (Afatinib + Tozasertib; first compound 0.01581 µM) | relative viability (Afatinib + Tozasertib; first compound 0.05 µM) | relative viability (Afatinib + Tozasertib; first compound 0.1581 µM) | relative viability (Afatinib + Tozasertib; first compound 0.5 µM) | relative viability (Afatinib + Trametinib; first compound 0.005 µM) | relative viability (Afatinib + Trametinib; first compound 0.01581 µM) | relative viability (Afatinib + Trametinib; first compound 0.05 µM) | relative viability (Afatinib + Trametinib; first compound 0.1581 µM) | relative viability (Afatinib + Trametinib; first compound 0.5 µM) | relative viability (Afatinib + AZD7762; first compound 0.005 µM) | relative viability (Afatinib + AZD7762; first compound 0.01581 µM) | relative viability (Afatinib + AZD7762; first compound 0.05 µM) | relative viability (Afatinib + AZD7762; first compound 0.1581 µM) | relative viability (Afatinib + AZD7762; first compound 0.5 µM) |
| --- | --- | --- | --- | --- | --- | --- | --- | --- | --- | --- | --- | --- | --- | --- | --- | --- | --- | --- | --- | --- |
| NCI-H1755 | 0.997 | 0.983 | 1.05 | 1 | 1.02 | 0.522 | 0.499 | 0.59 | 0.554 | 0.566 | 0.767 | 0.792 | 0.807 | 0.679 | 0.792 | 0.359 | 0.562 | 0.528 | 0.398 | 0.417 |
| NCI-H2087 | 1.06 | 0.857 | 1.04 | 0.998 | 0.895 | 0.232 | 0.25 | 0.267 | 0.229 | 0.202 | 0.223 | 0.147 | 0.183 | 0.117 | 0.15 | 1.15 | 1.45 | 1.27 | 1.31 | 1.21 |
| NCI-H2228 | 1.24 | 0.884 | 0.812 | 0.953 | 1.05 | 0.271 | 0.259 | 0.217 | 0.191 | 0.205 | 0.833 | 0.395 | 0.544 | 0.467 | 0.466 |  |  |  |  |  |
| NCI-H727 | 0.787 | 0.765 | 0.758 | 0.694 | 0.837 | 0.597 | 0.614 | 0.543 | 0.514 | 0.449 | 0.391 | 0.359 | 0.393 | 0.299 | 0.34 | 0.574 | 0.467 | 0.527 | 0.515 | 0.543 |
| NCI-H650 | 1.06 | 0.974 | 1.07 | 0.89 | 0.875 | 0.846 | 0.735 | 0.782 | 0.721 | 0.683 | 0.947 | 0.983 | 0.991 | 0.969 | 1.01 | 0.832 | 0.886 | 1.03 | 1.04 | 0.904 |
| NCI-H520 | 1.08 | 0.978 | 0.995 | 1 | 0.96 | 0.435 | 0.355 | 0.462 | 0.342 | 0.422 | 0.892 | 0.633 | 0.725 | 0.734 | 0.545 |  |  |  |  |  |
| EBC-1 | 1.02 | 0.976 | 1.02 | 0.969 | 1.01 |  |  |  |  |  |  |  |  |  |  |  |  |  |  |  |
| NCI-H661 | 1.02 | 0.863 | 0.831 | 0.626 | 0.691 | 0.34 | 0.367 | 0.367 | 0.361 | 0.377 | 0.52 | 0.415 | 0.457 | 0.367 | 0.369 |  |  |  |  |  |
| NCI-H1299 | 0.992 | 0.992 | 1.06 | 1.01 | 0.98 |  |  |  |  |  |  |  |  |  |  |  |  |  |  |  |
| SK-LU-1 | 1.07 | 1 | 1.07 | 1.05 | 1.06 | 0.332 | 0.32 | 0.355 | 0.322 | 0.277 | 0.504 | 0.405 | 0.604 | 0.526 | 0.483 |  |  |  |  |  |
| COR-L23 | 1.08 | 0.944 | 1.11 | 1.04 | 1.01 | 0.216 | 0.202 | 0.216 | 0.167 | 0.166 | 0.625 | 0.648 | 0.723 | 0.582 | 0.608 |  |  |  |  |  |
| NCI-H1650 | 0.755 |  | 0.896 | 0.696 | 0.736 | 0.409 |  | 0.408 | 0.313 | 0.343 | 0.431 | 0.357 | 0.475 | 0.484 | 0.365 |  |  |  |  |  |
| IA-LM | 0.925 | 0.868 | 0.905 | 0.883 | 0.871 |  |  |  |  |  |  |  |  |  |  |  |  |  |  |  |
| NCI-H2009 | 1.04 | 0.998 | 1.06 | 0.997 | 1.06 | 0.856 | 0.785 | 0.789 | 0.713 | 0.732 | 0.314 | 0.217 | 0.319 | 0.268 | 0.247 |  |  |  |  |  |
| NCI-H1563 | 0.992 | 0.932 | 0.97 | 0.895 | 0.99 |  |  |  |  |  |  |  |  |  |  |  |  |  |  |  |
| SK-MES-1 | 0.816 | 0.706 | 0.568 | 0.39 | 0.42 | 0.928 | 0.897 | 0.723 | 0.613 | 0.532 | 0.424 | 0.317 | 0.349 | 0.307 | 0.42 |  |  |  |  |  |
| UMC-11 | 1.03 | 0.955 | 1.03 | 0.959 | 0.983 | 0.206 | 0.199 | 0.198 | 0.207 | 0.187 | 0.73 | 0.732 | 0.667 | 0.7 | 0.908 |  |  |  |  |  |
| ABC-1 | 0.876 | 0.77 | 0.876 | 0.874 | 0.912 | 0.172 | 0.123 | 0.177 | 0.168 | 0.165 |  |  |  |  |  | 0.631 | 0.717 | 0.666 | 0.662 | 1.09 |
| SW 1573 | 0.978 | 0.962 | 1 | 0.962 | 0.925 | 0.16 | 0.175 | 0.202 | 0.158 | 0.171 | 0.524 | 0.551 | 0.616 | 0.526 | 0.53 |  |  |  |  |  |
| NCI-H1792 | 1.09 | 0.786 | 0.853 | 0.988 | 0.661 |  |  |  |  |  | 0.56 | 0.393 | 0.562 | 0.538 | 0.427 | 0.615 | 0.534 | 0.703 | 0.643 | 0.466 |
| NCI-H2023 | 0.968 | 0.85 | 0.898 | 0.882 | 0.886 | 0.422 | 0.377 | 0.366 | 0.169 | 0.248 | 0.527 | 0.505 | 0.489 | 0.398 | 0.393 |  |  |  |  |  |
| COR-L 105 | 0.522 | 0.387 | 0.45 | 0.287 | 0.309 | 0.333 | 0.255 | 0.258 | 0.165 | 0.206 | 0.38 | 0.315 | 0.379 | 0.34 | 0.352 |  |  |  |  |  |
